Reference: ChEMBL document CHEMBL1157613, “Salicylic acid based small molecule inhibitor for the oncogenic Src homology-2 domain containing protein tyrosine phosphatase-2 (SHP2)” (J Med Chem, 2010)

Key:
[1] = target: T1, Tyrosine-protein phosphatase non-receptor type 7 (Homo sapiens, UniProt P35236); assay: Inhibition of HePTP expressed in Escherichia coli assessed as inhibition of p-nitrophenyl phosphate hydrolysis at pH 7 by spectrophotometry
T1 sequence (P35236 whole entry): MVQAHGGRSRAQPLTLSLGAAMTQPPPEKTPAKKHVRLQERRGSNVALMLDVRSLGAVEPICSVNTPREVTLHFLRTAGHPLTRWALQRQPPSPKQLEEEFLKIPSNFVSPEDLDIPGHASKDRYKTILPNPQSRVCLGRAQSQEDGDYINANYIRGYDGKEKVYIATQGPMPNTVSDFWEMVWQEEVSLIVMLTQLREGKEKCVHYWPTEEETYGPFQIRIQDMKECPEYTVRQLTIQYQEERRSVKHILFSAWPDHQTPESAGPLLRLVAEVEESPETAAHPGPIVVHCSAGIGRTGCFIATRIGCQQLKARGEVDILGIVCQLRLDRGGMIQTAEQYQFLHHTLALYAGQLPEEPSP

[2] = target: T2, Receptor-type tyrosine-protein phosphatase C (Homo sapiens, UniProt P08575); assay: Inhibition of CD45 expressed in Escherichia coli assessed as inhibition of p-nitrophenyl phosphate hydrolysis at pH 7 by spectrophotometry
T2 sequence (P08575 whole entry): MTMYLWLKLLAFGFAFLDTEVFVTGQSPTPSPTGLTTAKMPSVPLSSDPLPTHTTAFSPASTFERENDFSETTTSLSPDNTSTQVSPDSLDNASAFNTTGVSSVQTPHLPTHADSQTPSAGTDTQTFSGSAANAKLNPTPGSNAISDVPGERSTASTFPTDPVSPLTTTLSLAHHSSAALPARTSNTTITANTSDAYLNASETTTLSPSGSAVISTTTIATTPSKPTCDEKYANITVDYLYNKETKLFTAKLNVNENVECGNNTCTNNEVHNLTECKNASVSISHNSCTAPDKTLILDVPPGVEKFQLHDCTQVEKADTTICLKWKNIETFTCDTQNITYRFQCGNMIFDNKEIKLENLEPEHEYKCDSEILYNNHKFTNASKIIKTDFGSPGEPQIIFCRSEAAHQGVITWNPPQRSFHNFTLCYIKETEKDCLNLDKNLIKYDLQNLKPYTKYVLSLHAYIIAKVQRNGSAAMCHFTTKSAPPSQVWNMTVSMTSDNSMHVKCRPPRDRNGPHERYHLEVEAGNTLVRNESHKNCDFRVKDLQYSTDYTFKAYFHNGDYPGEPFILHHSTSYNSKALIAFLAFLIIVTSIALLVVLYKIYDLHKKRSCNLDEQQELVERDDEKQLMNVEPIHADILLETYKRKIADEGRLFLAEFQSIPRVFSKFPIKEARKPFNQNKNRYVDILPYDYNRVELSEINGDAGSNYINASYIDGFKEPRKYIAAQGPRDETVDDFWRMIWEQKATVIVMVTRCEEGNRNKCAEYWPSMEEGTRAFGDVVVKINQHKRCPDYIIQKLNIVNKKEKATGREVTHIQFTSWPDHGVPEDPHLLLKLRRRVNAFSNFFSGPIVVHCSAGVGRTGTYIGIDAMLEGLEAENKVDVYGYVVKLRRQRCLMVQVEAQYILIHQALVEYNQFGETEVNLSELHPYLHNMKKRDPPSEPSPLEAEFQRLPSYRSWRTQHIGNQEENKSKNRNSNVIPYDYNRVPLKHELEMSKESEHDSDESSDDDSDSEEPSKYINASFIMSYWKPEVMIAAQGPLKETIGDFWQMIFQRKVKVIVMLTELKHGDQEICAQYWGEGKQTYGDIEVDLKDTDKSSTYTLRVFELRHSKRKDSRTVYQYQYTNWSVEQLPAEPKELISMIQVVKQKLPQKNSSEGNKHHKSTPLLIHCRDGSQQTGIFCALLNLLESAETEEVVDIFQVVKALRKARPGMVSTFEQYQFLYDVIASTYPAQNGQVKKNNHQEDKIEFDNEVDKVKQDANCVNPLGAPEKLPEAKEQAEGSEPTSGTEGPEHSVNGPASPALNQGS

[3] = target: T3, Dual specificity protein phosphatase CDC14A (Homo sapiens, UniProt Q9UNH5); assay: Inhibition of Cdc14A expressed in Escherichia coli assessed as inhibition of p-nitrophenyl phosphate hydrolysis at pH 7 by spectrophotometry
T3 sequence (Q9UNH5 whole entry): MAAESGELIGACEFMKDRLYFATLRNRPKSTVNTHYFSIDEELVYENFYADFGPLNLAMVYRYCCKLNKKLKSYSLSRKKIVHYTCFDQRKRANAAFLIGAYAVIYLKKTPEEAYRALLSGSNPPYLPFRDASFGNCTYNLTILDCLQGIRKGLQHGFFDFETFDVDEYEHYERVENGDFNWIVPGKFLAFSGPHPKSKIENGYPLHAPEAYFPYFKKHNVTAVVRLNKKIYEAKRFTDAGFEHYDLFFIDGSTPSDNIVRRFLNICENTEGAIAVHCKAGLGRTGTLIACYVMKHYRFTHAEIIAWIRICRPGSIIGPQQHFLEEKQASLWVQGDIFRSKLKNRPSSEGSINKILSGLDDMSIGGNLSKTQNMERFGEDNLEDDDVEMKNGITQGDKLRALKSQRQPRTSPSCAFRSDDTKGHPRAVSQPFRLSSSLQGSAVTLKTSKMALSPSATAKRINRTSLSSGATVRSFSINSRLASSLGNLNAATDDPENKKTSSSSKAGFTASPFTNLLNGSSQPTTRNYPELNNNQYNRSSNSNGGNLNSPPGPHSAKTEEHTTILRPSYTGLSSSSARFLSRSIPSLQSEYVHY

[4] = target: T4, Low molecular weight phosphotyrosine protein phosphatase (Homo sapiens, UniProt P24666); assay: Inhibition of LMWPTP expressed in Escherichia coli assessed as inhibition of p-nitrophenyl phosphate hydrolysis at pH 7 by spectrophotometry
T4 sequence (P24666 whole entry): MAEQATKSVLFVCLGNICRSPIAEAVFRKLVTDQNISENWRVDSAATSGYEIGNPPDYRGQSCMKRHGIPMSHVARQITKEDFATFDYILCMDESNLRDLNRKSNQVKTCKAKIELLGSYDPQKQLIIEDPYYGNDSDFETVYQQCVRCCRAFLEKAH

IC50 [1]: > 50 µM
IC50 [2]: 30 µM
IC50 [3]: > 50 µM
IC50 [4]: 31.1 µM
Structure (SMILES): Cn1c(-c2ccccc2)c(-c2cn(CCC(=O)Nc3ccc(-c4ccccc4)cc3)nn2)c2cc(C(=O)O)c(O)cc21
